Where two headings read alike, the source gives them in different places.
Test system: PSA
Test: Screening SSIA by homogeneous PSA immunoassay
Assay type: biochemical
Procedure: This example presents one method used for testing of candidate compounds for functionality as SSIA in assays of the present disclosure. Testing was conducted in a model screening immunoassay of the protein PSA. Mouse anti-PSA tests were run using a 96-well microtiter plate format. […] The plate was incubated at 37° C. for 10 minutes. A 5 μL aliquot of the test compound (various concentrations) was added to each well. Chemiluminescence was triggered by the addition of 100 μL of a solution of trigger solution A. The chemiluminescent flash was integrated for 5 seconds after the addition of the trigger solution using a Luminoskan Asent® plate luminometer, (Thermo Fischer Scientific, Inc., Waltham, Mass.).
It is desirable that the improvement factor be at least 2 (S5/S0≧ about 20-30) and more desirable that improvement factor be at least 5 (S5/S0≧ about 50), yet more desirable that S5/S0 be ≧100 in the present screen.

[1] = PSA 129 ng/mL (S5) vs zero, test compound final conc. 0.244 mM
[2] = PSA 129 ng/mL (S5) vs zero, test compound final conc. 0.122 mM
[3] = PSA 129 ng/mL (S5) vs zero, test compound final conc. 0.111 mM

Compound | S5/S0 [2] | also measured
O=C1C=C(O)C(=O)C=C1O | – | S5/S0 [1]: 14
O=C1O[C@H]([C@@H](O)CO)C([O-])=C1O.[Na+] [ascorbate sodium salt (ascorbate anion), ascorbate sodium salt] | 495 | –
O=C1O[C@H]([C@@H](O)CO)C(=O)C1=O | 26 | –
O[C@@H](CS)[C@@H](O)CS [DTT] | – | S5/S0 (PSA 129 ng/mL (S5) vs zero, test compound final conc. 72 uM): 20
Oc1ccc(Cl)cc1O [drawing 77] | – | S5/S0 [1]: 409
Nc1c(O)cc(S(=O)(=O)O)c2ccccc12 | 65 | –
N[C@@H](CS)C(=O)O [L-Cysteine] | – | S5/S0 (PSA 129 ng/mL (S5) vs zero, test compound final conc. 122 uM): 22
O=C(O)/C(O)=C(/O)C(=O)O | 30 | –
O=C(O)c1cc(O)c2ccccc2n1 | 6 | –
O=c1c(O)c(-c2ccccc2)oc2ccccc12 | 13 | –
CC1(C)OC(=O)C(O)=C1O | 467 | –
O=S(=O)([O-])CCCN1c2ccccc2Cc2ccccc21.[Na+] | – | S5/S0 [1]: 15
C[C@H]1OC(=O)C(O)=C1O | 423 | –
Cc1cc(CO)c(O)c(CO)c1 | 23 | –
COc1cc(O)ccc1O | – | S5/S0 [3]: 161
c1ccc2c(c1)Cc1ccccc1O2 | 4 | –
Nc1ncccc1O | 32 | –
O=C(O)c1cc(O)c(O)c(O)c1 | 135 | –
Nc1ccccc1B(O)O | 108 | –
O=c1cc(O)c2ccccc2o1 | 17 | –
Nc1ccccc1S | 234 | –
Cn1ccnc1S | – | S5/S0 (PSA 129 ng/mL (S5) vs zero, test compound final conc. 36.7 mM): 102
[N-]=[N+]=[N-].[Na+] [NaN3] | – | S5/S0 (PSA 129 ng/mL (S5) vs zero, test compound final conc. 34 uM): 19
c1ccc2c(c1)Cc1ccccc1N2 | – | S5/S0: 120
Oc1ccc(O)c(Cl)c1 [drawing 75] | – | S5/S0 [3]: 229
O=S(=O)([O-])CCCOCCCN1c2ccccc2Cc2ccccc21.[Na+] | – | S5/S0 [1]: 6
